≈ marks a conversion by molar mass, not a printed value.
Experiments:
Type in all cases: cell-based
Rhizoctonia solani (Rs) = assay: In vitro pathogen growth inhibition assay, Rs (mycelial plugs); details: Rhizoctonia solani, 48 h, ≥90% inhibition; mycelial plugs; 48 hours vs 2% DMSO control; read-out: Compound Concentration (ppm) sufficient for ≥90% inhibition of growth, Rs
Summary of the method: (§1)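 Spores in 17% V8 liquid medium, or 1.5 mm Rs mycelial plugs in ¼ PDB, incubated with compound; final concentration checked by OD600 for precipitation. OD readings at 24 and 48 h, blank-subtracted, plus visual ratings; value is concentration giving ≥90% growth inhibition.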

[1] = tested on: Phytophthora capsici (Pc); assay: In vitro pathogen growth inhibition assay, Pc; details: 48 h, ≥90% inhibition, 48 hours vs 2% DMSO control, read-out: Compound Concentration (ppm) sufficient for ≥90% inhibition of growth, Pc
Summary of the method: as §1

[2] = tested on: Fusarium moniliforme (Fm); assay: In vitro pathogen growth inhibition assay, Fm; details: Fusarium verticillioides; ≥90% inhibition; 48 hours vs 2% DMSO control; read-out: Compound Concentration (ppm) sufficient for ≥90% inhibition of growth, Fm
Summary of the method: as §1

[3] = tested on: Collectotrichum graminicola (Cg); assay: In vitro pathogen growth inhibition assay, Cg; details: 48 h, ≥90% inhibition; 48 hours vs 2% DMSO control; read-out: Compound Concentration (ppm) sufficient for ≥90% inhibition of growth, Cg
Summary of the method: as §1

[4] = tested on: Saccharomyces cerevisiae (Sc); assay: Yeast growth inhibition assay; details: Saccharomyces cerevisiae, ≥75% inhibition, read-out: Compound Concentration (ppm) sufficient for ≥75% inhibition, Sc
Method: Both tables list the concentration of each compound that was sufficient to ≥90% inhibition of growth for each of the fungal pathogens listed above. In addition, some of compounds were tested in a yeast growth inhibition assay for Saccharomyces cerevisiae (Sc). Table 2 lists the concentration of the tested compound that was sufficient to ≥75% inhibition of Saccharomyces cerevisiae (Sc).

Diplodia maydis (Dm) = assay: In vitro pathogen growth inhibition assay, Dm; details: Stenocarpella maydis, 48 h, ≥90% inhibition; 48 hours vs 2% DMSO control; read-out: Compound Concentration (ppm) sufficient for ≥90% inhibition of growth, Dm
Summary of the method: as §1

[5] = tested on: Fusarium virguliforme (Fv); assay: In vitro pathogen growth inhibition assay, Fv; details: ≥90% inhibition, 48 hours vs 2% DMSO control, read-out: Compound Concentration (ppm) sufficient for ≥90% inhibition of growth, Fv
Summary of the method: as §1

Botrtyis cinerea (Bc) = assay: In vitro pathogen growth inhibition assay, Bc; details: 48 h, ≥90% inhibition; 48 hours vs 2% DMSO control; read-out: Compound Concentration (ppm) sufficient for ≥90% inhibition of growth, Bc
Summary of the method: as §1

Septoria tritici (St) = assay: In vitro pathogen growth inhibition assay, St; details: Zymoseptoria tritici, 48 h, ≥90% inhibition; 48 hours vs 2% DMSO control; read-out: Compound Concentration (ppm) sufficient for ≥90% inhibition of growth, St
Summary of the method: as §1

SMILES: COc1ccccc1[C@H](Cn1c(=O)n(C(C)(C)C(=O)NC2CCC2)c(=O)c2c(C)c(-c3ncco3)sc21)OC1CCOCC1 [Compound I-099]
- IC90 (Rhizoctonia solani (Rs)): 50 µg/mL (≈ 80.3 µM)
- IC90 [1]: > 50 µg/mL
- IC90 [2]: 0.4 µg/mL (≈ 0.642 µM)
- IC90 [3]: 50 µg/mL (≈ 80.3 µM)
- IC75 [4]: 33 µg/mL (≈ 53 µM)
- IC90 (Diplodia maydis (Dm)): 10 µg/mL (≈ 16.1 µM)
- IC90 [5]: 50 µg/mL (≈ 80.3 µM)
- IC90 (Botrtyis cinerea (Bc)): 10 µg/mL (≈ 16.1 µM)
- IC90 (Septoria tritici (St)): > 50 µg/mL

SMILES: CCOC(=O)c1sc2c(c1C)c(=O)n(C(C)(C)C(=O)N1CCOCC1)c(=O)n2C[C@H](OC(C)C)c1ccccc1OC [Compound I-109]
- IC90 (Rhizoctonia solani (Rs)): 50 µg/mL (≈ 83.1 µM)
- IC90 [1]: > 50 µg/mL
- IC90 [2]: 0.4 µg/mL (≈ 0.665 µM)
- IC90 [3]: 10 µg/mL (≈ 16.6 µM)
- IC75 [4]: 11.1 µg/mL (≈ 18.4 µM)
- IC90 (Diplodia maydis (Dm)): 2 µg/mL (≈ 3.32 µM)
- IC90 [5]: 10 µg/mL (≈ 16.6 µM)
- IC90 (Botrtyis cinerea (Bc)): 0.4 µg/mL (≈ 0.665 µM)
- IC90 (Septoria tritici (St)): > 50 µg/mL

SMILES: COc1ccccc1[C@H](Cn1c(=O)n(C(C)(C)C(=O)N2CCCCC2)c(=O)c2c(C)c(-c3ncco3)sc21)O[C@H]1CC[C@@H](O)CC1 [Compound I-110]
- IC90 (Rhizoctonia solani (Rs)): 50 µg/mL (≈ 76.8 µM)
- IC90 [1]: > 50 µg/mL
- IC90 [2]: 0.4 µg/mL (≈ 0.615 µM)
- IC90 [3]: > 50 µg/mL
- IC75 [4]: 33.3 µg/mL (≈ 51.2 µM)
- IC90 (Diplodia maydis (Dm)): 10 µg/mL (≈ 15.4 µM)
- IC90 [5]: 2 µg/mL (≈ 3.07 µM)
- IC90 (Botrtyis cinerea (Bc)): 2 µg/mL (≈ 3.07 µM)
- IC90 (Septoria tritici (St)): > 50 µg/mL

SMILES: CCOC(=O)c1sc2c(c1C)c(=O)n(C(C)(C)C(=O)NC(C)C)c(=O)n2C[C@H](OC(C)C)c1ccccc1OC [Compound I-009]
- IC90 (Rhizoctonia solani (Rs)): 10 µg/mL (≈ 17.4 µM)
- IC90 [1]: > 50 µg/mL
- IC90 [2]: 0.08 µg/mL (≈ 0.139 µM)
- IC90 [3]: 2 µg/mL (≈ 3.49 µM)
- IC75 [4]: 3.7 µg/mL (≈ 6.45 µM)
- IC90 (Diplodia maydis (Dm)): 0.4 µg/mL (≈ 0.697 µM)
- IC90 [5]: 0.4 µg/mL (≈ 0.697 µM)
- IC90 (Botrtyis cinerea (Bc)): 0.4 µg/mL (≈ 0.697 µM)
- IC90 (Septoria tritici (St)): > 50 µg/mL

SMILES: COc1ccccc1[C@H](Cn1c(=O)n(C(C)(C)C(=O)N2CCOCC2)c(=O)c2c(C)c(-c3ncco3)sc21)OC(C)C [Compound I-143]
- IC90 (Rhizoctonia solani (Rs)): > 50 µg/mL
- IC90 [1]: > 50 µg/mL
- IC90 [2]: 2 µg/mL (≈ 3.35 µM)
- IC90 [3]: 50 µg/mL (≈ 83.8 µM)
- IC75 [4]: 11 µg/mL (≈ 18.4 µM)
- IC90 (Diplodia maydis (Dm)): 10 µg/mL (≈ 16.8 µM)
- IC90 [5]: ≥ 10 µg/mL
- IC90 (Botrtyis cinerea (Bc)): 2 µg/mL (≈ 3.35 µM)
- IC90 (Septoria tritici (St)): > 50 µg/mL

SMILES: CCNC(=O)C(C)(C)n1c(=O)c2c(C)c(-c3ncco3)sc2n(C[C@H](OC(C)C)c2ccccc2OC)c1=O [Compound I-144]
- IC90 (Rhizoctonia solani (Rs)): > 50 µg/mL
- IC90 [1]: > 50 µg/mL
- IC90 [2]: 2 µg/mL (≈ 3.61 µM)
- IC90 [3]: 50 µg/mL (≈ 90.1 µM)
- IC75 [4]: 11 µg/mL (≈ 19.8 µM)
- IC90 (Diplodia maydis (Dm)): 10 µg/mL (≈ 18 µM)
- IC90 [5]: 10 µg/mL (≈ 18 µM)
- IC90 (Botrtyis cinerea (Bc)): 10 µg/mL (≈ 18 µM)
- IC90 (Septoria tritici (St)): > 50 µg/mL

SMILES: COc1ccccc1[C@H](Cn1c(=O)n(C(C)(C)C(=O)N2CCCC2)c(=O)c2c(C)c(-c3ncco3)sc21)OC1CCOCC1 [Compound I-005]
- IC90 (Rhizoctonia solani (Rs)): 0.4 µg/mL (≈ 0.642 µM)
- IC90 [1]: > 50 µg/mL
- IC90 [2]: 0.08 µg/mL (≈ 0.128 µM)
- IC90 [3]: 2 µg/mL (≈ 3.21 µM)
- IC75 [4]: 0.4 µg/mL (≈ 0.642 µM)
- IC90 (Diplodia maydis (Dm)): 2 µg/mL (≈ 3.21 µM)
- IC90 [5]: 2 µg/mL (≈ 3.21 µM)
- IC90 (Botrtyis cinerea (Bc)): 2 µg/mL (≈ 3.21 µM)
- IC90 (Septoria tritici (St)): > 10 µg/mL

SMILES: COc1ccc(F)cc1[C@H](Cn1c(=O)n(C(C)(C)C(N)=O)c(=O)c2c(C)c(C3CCC3)sc21)OC1CCOCC1 [Compound I-147]
- IC90 (Rhizoctonia solani (Rs)): 50 µg/mL (≈ 87.2 µM)
- IC90 [1]: > 50 µg/mL
- IC90 [2]: 2 µg/mL (≈ 3.49 µM)
- IC90 [3]: 50 µg/mL (≈ 87.2 µM)
- IC75 [4]: 33 µg/mL (≈ 57.5 µM)
- IC90 (Diplodia maydis (Dm)): > 50 µg/mL
- IC90 [5]: 2 µg/mL (≈ 3.49 µM)
- IC90 (Botrtyis cinerea (Bc)): 10 µg/mL (≈ 17.4 µM)
- IC90 (Septoria tritici (St)): > 50 µg/mL

SMILES: CCOC(=O)c1sc2c(c1C)c(=O)n(C(C)(C)C(=O)N1CCCC1)c(=O)n2C[C@H](OC(C)C)c1ccccc1OC [Compound I-007]
- IC90 (Rhizoctonia solani (Rs)): 0.08 µg/mL (≈ 0.137 µM)
- IC90 [1]: > 50 µg/mL
- IC90 [2]: 0.08 µg/mL (≈ 0.137 µM)
- IC90 [3]: 0.4 µg/mL (≈ 0.683 µM)
- IC75 [4]: 0.4 µg/mL (≈ 0.683 µM)
- IC90 (Diplodia maydis (Dm)): 0.4 µg/mL (≈ 0.683 µM)
- IC90 [5]: 0.4 µg/mL (≈ 0.683 µM)
- IC90 (Botrtyis cinerea (Bc)): 0.4 µg/mL (≈ 0.683 µM)
- IC90 (Septoria tritici (St)): ≥ 2 µg/mL

SMILES: COc1ccc(F)cc1[C@H](Cn1c(=O)n(CCS(N)(=O)=O)c(=O)c2c(C)c(-c3ncco3)sc21)OC1CCOCC1 [Compound I-148]
- IC90 (Rhizoctonia solani (Rs)): 50 µg/mL (≈ 82.1 µM)
- IC90 [1]: > 50 µg/mL
- IC90 [2]: 2 µg/mL (≈ 3.29 µM)
- IC90 [3]: 50 µg/mL (≈ 82.1 µM)
- IC75 [4]: 33 µg/mL (≈ 54.2 µM)
- IC90 (Diplodia maydis (Dm)): > 10 µg/mL
- IC90 [5]: 50 µg/mL (≈ 82.1 µM)
- IC90 (Botrtyis cinerea (Bc)): 10 µg/mL (≈ 16.4 µM)
- IC90 (Septoria tritici (St)): > 50 µg/mL

SMILES: COc1ccccc1[C@H](Cn1c(=O)n(C(C)(C)C(=O)N2CCCC2)c(=O)c2c(C)c(-c3ncco3)sc21)OC1CCC(=O)CC1 [Compound I-112]
- IC90 (Rhizoctonia solani (Rs)): 50 µg/mL (≈ 78.8 µM)
- IC90 [1]: > 50 µg/mL
- IC90 [2]: 0.4 µg/mL (≈ 0.63 µM)
- IC90 [3]: ≥ 2 µg/mL
- IC75 [4]: 3.7 µg/mL (≈ 5.83 µM)
- IC90 (Diplodia maydis (Dm)): 10 µg/mL (≈ 15.8 µM)
- IC90 [5]: 10 µg/mL (≈ 15.8 µM)
- IC90 (Botrtyis cinerea (Bc)): 2 µg/mL (≈ 3.15 µM)
- IC90 (Septoria tritici (St)): 50 µg/mL (≈ 78.8 µM)

— patent publication US10941157B2, “Pesticidal compositions and uses thereof” (Gilead Apollo, LLC, priority 2015, dated 2021)
